Data reported in patent publication US20250268829A1, “INHALED ANTIBACTERIAL FORMULATIONS FOR TREATING LUNG INFECTIONS” (Board of Regents, The University of Texas System, priority 2022, published 2025).
In brackets after ≈: the same amount, converted by molar mass.

Columns and labels:
Calu-3 cells = assay: Cell viability, MTT assay; type: cell-based
Protocol: Calu-3 cells between passage 14-17 were grown in Dulbecco's Modified Eagle Medium (DMEM)+10% Fetal Bovine Serum (FBS)+1% Non-Essential Amino Acids (NEAA)+1% Penicillin Streptomycin (PS)+1% Sodium pyruvate in a 75 cm^2 flask. The media was changed every other day.
To assess the toxicity of the tigecycline powders, Calu-3 cells were seeded into 96-well tissue culture plates at a seeding density of 9000 cells/well. The cells were cultured overnight in media. […] The powders were dissolved in media and 100 μL of each concentration was added to the wells. Control wells containing only media were also set up. […] […] At 3 hours, MTT reagent/culture media was removed and 150 μl of MTT dissolving solvent was added to the well. The well-plate was wrapped in foil and kept on an electronic shaker for 15 minutes. The absorbance was then read at 590 nm using the Tecan microplate reader (Tecan Global Headquarters, Männedorf, Switzerland).

[1] = HPLC stability upon aerosolization and storage; type: physicochemical; conditions: capsule (before aerosolization) and NGI stage 4 (after aerosolization) samples
Protocol: Stability upon aerosolization was assessed using High-Performance Liquid Chromatography (HPLC) by the method described by Lucelia Magalhaes da Silva and Herida Regina Nunes Salgado in Validation of a Stability-Indicating RP-LC Method for the Determination of Tigecycline in Lyophilized Powder, J. Chromatogr. Sci. 51:192-199 (2012). The powder accumulated on Stage 4 (after aerosolization), as well as the capsule (before aerosolization) after running the NGI, was dissolved in a buffer containing 0.015 M oxalic acid and 0.015 M sodium phosphate monobasic at pH 7. The mobile phase used was 75 (0.015 M oxalic acid and 0.015 M sodium phosphate monobasic at pH 7): 25 (Acetonitrile). The flow rate was kept at 1 mL/min and UV absorbance was measured at 245 nm. A forcefully degraded sample (tigecycline left in water for 1 week at RT without protection from light) was also incorporated as a control to assess the ability of the method to detect degradants.
The milled powder was stored for 30 days at 25° C./60% RH and 45° C./75% RH, as specified by the International Council for Harmonization (ICH) intermediate and accelerated stability conditions using sealed amber vials. At the 30-day and 6 month time point, the powder was characterized for its physicochemical properties, stability, and aerosol performance. […]

S. maltophilia [2] = conditions: cited from earlier work
Mycobacterium abscessus = assay: In vitro efficacy (MIC) against Mycobacterium abscessus; type: cell-based; conditions: Mycobacteroides abscessus, Mab in Middlebrook 7H9 broth; read-out: minimal inhibitory concentration (MIC)
Protocol: Mab was cultured in Middlebrook 7H9 liquid broth for 48 hours. 100 μL of inoculum was then added to 96 well plate with 50 μL of different concentrations of Tigecycline (0.1 to 240 μg/mL) (FIG. 3).

S. maltophilia biofilm = assay: Biofilm eradication (MBEC), XTT assay; type: cell-based, Stenotrophomonas maltophilia
Protocol: (§1) Stenotrophomonas maltophilia was obtained from American Type Culture Collection (ATCC, Manassas, VA) (ATCC 13637). S. maltophilia dried pellet was reconstituted in nutrient broth and frozen until further use. An inoculation loop was used to collect S. maltophilia from the stock solution and was streaked onto nutrient agar plates. The plates were incubated at 37° C. for 24 hours. At the 24-hour point, an inoculation loop was used to transfer bacteria from the plate to 5 mL of liquid nutrient broth. The bacteria in the liquid medium were left overnight on a shaker at 37° C.
S. maltophilia was grown as described above. 200 μL of the bacteria in nutrient broth was added onto 96 well plates for varying amounts of time ranging from 1 day to 5 days. The bacterial biomass at each time point was assessed using crystal violet assay. Briefly, the liquid media was aspirated at each time point, and the wells were washed twice with 200 μL of phosphate-buffered saline (PBS). […] The bound dye was then solubilized in 33% v/v acetic acid, and the absorbance was measured at 595 nm. […]
200 μL of this standardized culture was added to 96 well plates and allowed to grow overnight at 37° C. […] At 24 hours, the viability of the bacteria was evaluated using the XTT assay. […] After 3 hours, the absorbance was measured at 490 nm.

Calu-3 cell monolayer = assay: Drug permeability across air-liquid interface monolayer; type: in vitro ADME
Protocol: Calu-3 cells were plated at a cell density of 33,000 cells/well in 24-well transwell inserts on the apical side and 500 μL media was added to the basolateral side. 48 hours after plating the cells, the cells were airlifted (i.e the media from the apical and basolateral side was aspirated and only the basolateral side was replaced with media).
Cell integrity of the Calu-3 monolayer was measured every other day after airlifting. Briefly, the media from the basolateral side was aspirated. 200 μL of Hank's balanced salt solution (HBSS) buffer was added to the apical side and 500 μL of HBSS was added to the basolateral side. The transepithelial electrical resistance (TEER) was measured using an epithelial Voltohmmeter. The short electrode was dipped into the buffer on the apical side and the longer electrode was dipped into the buffer on the basolateral side. Using the measured value the TEER was calculated using equation (2): […]
The permeation experiments were carried out between days 5-7 after airlifting when the TEER values were ˜700Ω which indicates epithelial cell integrity and the absence of a leaky monolayer. The amount of drug transported across the cell layer were measured as follows: Milled and unmilled powders of tigecycline were dissolved in 200 μL of HBSS at a concentration of 10 μM and 20 μM. The media in the basolateral side was replaced by HBSS. 10 μL sample was collected from the basolateral side at the following intervals: 5 min, 15 min, 30 min, 45 min, 60 min, 2 hours, 4 hours, 6 hours, 8 hours, 12 hours, and 24 hours. After each aliquot, 10 μL of HBSS buffer was replaced into the basolateral chamber. This procedure was repeated to measure the permeability from the basolateral side to the apical side where samples were aliquoted from the apical side. The apparent permeability can be calculated as follows:
[formula] • Where • dQ/dt=Concentration flux • A=Surface area • Co=initial concentration

S. maltophilia [3] = assay: Minimum inhibitory concentration, OD 600; type: cell-based, Stenotrophomonas maltophilia
Protocol: as §1
Liquid bacterial culture was prepared as described above. 200 μL of the overnight liquid culture was added to 96 well plates. Varying concentrations of TIG were added to the 96 well plates ranging from 0.12 μg/mL to 64 μg/mL. All TIG concentrations were tested in triplicate. The well plate was allowed to incubate at 37° C. for 24 hours, and the MIC was determined using the OD 600 values.

[4] = Water content by thermogravimetric analysis (TGA); type: physicochemical; conditions: baseline
Protocol: The water content of the powders was assessed using thermogravimetric analysis (TGA). About 5 mg of powder was loaded into a 70 μL alumina crucible. The samples were heated from 35-350° C. at a rate of 10° C./min.
(§2) The milled powder was stored for 30 days at 25° C./60% RH and 45° C./75% RH, as specified by the International Council for Harmonization (ICH) intermediate and accelerated stability conditions using sealed amber vials. At the 30-day and 6 month time point, the powder was characterized for its physicochemical properties, stability, and aerosol performance. The results obtained from day 30 and 6 months were compared to baseline measurements to declare storage stability.

[5] = Geometric particle size distribution, HELOS laser diffraction with RODOS dispersion; type: physicochemical; conditions: Avg.
Protocol: HELOS laser diffraction instrument (Sympatec Americas, Pennington, NJ) using the RODOS dispersion feature was used to assess the geometric particle size distribution of both the milled and unmilled powders. The particle size distribution was measured at different pressures from 0.5-3 bar to analyze the effect of dispersion pressure on particle deaggregation. Measurements that were between 5% and 25% optical density were averaged to determine particle size distribution.

[6] = Water sorption by dynamic vapor sorption (DVS); type: physicochemical; conditions: baseline
Protocol: Dynamic vapor sorption (DVS) analysis of the powders was performed using an Automated Water Sorption Analyzer (Surface Measurement Systems, London, UK). Briefly, 5-10 mg of milled and unmilled TIG powder was used as the sample. The samples were allowed to equilibrate under nitrogen until dm/dt<0.002%. Water sorption was analyzed as 10 steps from 0% relative humidity (RH) to 100% RH where step dm/dt was set at 0.075% at 10% increments in RH.
as §2

[7] = In vitro aerosol performance, Next Generation Impactor (NGI); type: physicochemical; conditions: for Emitted Dose / Emitted Fraction / GSD / MMAD / RF (<5 μm): 4 kPa; for RF (<5 μm): percent of total dose
Protocol: The in vitro aerosol performance of the milled and unmilled powders was assessed using Next Generation Impactor (NGI) with a low and high resistance DPI (RS01 Monodose DPI (RS01 DPI; Plastiape). About 10 mg of the powder was added to size 3 hydroxypropyl methylcellulose (HPMC) capsules and the analysis was performed for a length of time sufficient to draw 4 L of air through the NGI, as per USP requirements. The pressure drop across the system was equivalent to either 4 kPa or 1 kPa. The flow rates required across the pressure drop to draw 4 L of air through the NGI, as per USP requirements, were 93 L/min for 4 kPa and 47.6 L/min for 1 kPa. The aerosol performance was compared between the low resistance device and the high resistance device. Also, the performance of the Plastiape devices was compared to that of Handihaler, a commercially used DPI. TIG deposited in each stage was dissolved in a buffer containing 0.015 M oxalic acid and 0.015 M sodium phosphate monobasic at pH 7 and quantified using a UV-Visible spectrophotometer (Tecan Systems, Inc., San Jose, CA, USA) at 245 nm. The aerodynamic particle size metrics that were calculated include emitted dose (ED), emitted fraction (EF), the respiratory fraction (RF), fine particle dose (FPD), fine particle fraction (FPF), mass median aerodynamic diameter (MMAD), and geometric standard deviation (GSD). […]

[8] = True density, helium multipycnometer; type: physicochemical
Protocol: The true density of the processed powders was measured using a helium multipycnometer (Quantachrome Instruments, Boynton Beach, FL) with a micro-sample cell. The sample cell was filled to at least 75% of the total volume with milled or unmilled tigecycline powder. Using equation (1), the pressure of both the reference cell (P1) and sample cell (P2) was determined, and the true volume of the sample was calculated as follows:
For the micro-sample cell utilized, Vc was calibrated at 11.76156 cm^3 and VR=6.34216 cm^3. The sample weight was divided by the measured true volume to obtain the true density. Measurements were repeated until the standard deviation of ten consecutive true density measurements was less than 0.01 g/mL.

## CN(C)c1cc(NC(=O)CNC(C)(C)C)c(O)c2c1C[C@H]1C[C@H]3[C@H](N(C)C)C(O)=C(C(N)=O)C(=O)[C@@]3(O)C(O)=C1C2=O [Tigecycline, tigecycline]
Calu-3 cells; 5 mM and 7.5 mM, 4-hour and 8-hour point
  effect on Calu-3 cell viability: significant cell death
Calu-3 cells; 4-hour and 8-hour point, submerged culture
  concentration up to which Calu-3 cells were viable: 2500 µM
Calu-3 cells; 12-hour point
  maximum concentration that allowed the cells to maintain their viability: 125 µM
Calu-3 cells; 24 hours
  maximum concentration that allowed the cells to maintain their viability: 25 µM
[1]
  degradation peaks in HPLC chromatograms: none of the degradation peaks were observed
S. maltophilia [2]
  susceptibility of S. maltophilia: more than 90%
Mycobacterium abscessus
  MIC: > 4 µg/mL
S. maltophilia biofilm; concentrations above 0.5 μM, 24 hours
  inhibition of biofilm formation: ~85%
S. maltophilia biofilm; concentrations lower than 0.5 μM
  inhibition of S. maltophilia biofilm formation: could not effectively inhibit
Calu-3 cell monolayer; apical to basolateral, across a 12-hour time point, HPLC limit of detection 1 μM
  tigecycline permeated through the cell monolayer: less than 1 μM
Calu-3 cell monolayer; at the end of the experiment
  drug remaining in the apical (donor) side: ~100%
Calu-3 cell monolayer; basolateral to apical direction
  permeability across the cell monolayer: impermeability
S. maltophilia [3]; 0.1 μg/mL and 0.25 μg/mL
  inhibition of growth of S. maltophilia: failed to inhibit bacterial growth
S. maltophilia [3]; 0.12 and 0.25 μg/mL
  OD 600 value normalized to control: ~1
S. maltophilia [3]; Stenotrophomonas maltophilia, 24 hours, OD 600, read-out: Minimum Inhibitory Concentrations (MIC)
  MIC: 0.5 µg/mL (≈ 0.854 µM)
S. maltophilia [3]; concentrations >0.5 μg/mL
  OD 600 values versus control: significantly lower than that of control
S. maltophilia [3]; concentrations equal to or greater than 0.5 μg/mL
  inhibition of growth of S. maltophilia: completely

## CN(C)c1cc(NC(=O)CNC(C)(C)C)c(O)c2c1C[C@H]1C[C@H]3[C@H](N(C)C)C(O)=C(C(N)=O)C(=O)[C@@]3(O)C(O)=C1C2=O [Unmilled tigecycline, tigecycline]
[4]
  Water content: negligible
[5]; dispersing pressure 0.5 bar
  Dv90: 18.38 μm
[5]; dispersing pressure 1 bar
  Dv90: 16.29 μm
[5]; dispersing pressure 2 bar
  Dv90: 10.79 μm
[5]; dispersing pressure 3 bar
  Dv90: 9.49 μm
[5]; dispersing pressure 3 bar, listed as unmilled powders
  Dv90: 9.48 μm
[6]
  hygroscopicity: not hygroscopic
[7]; Handihaler
  Emitted Dose: 7.66 ± 5.11 mg
  Emitted Fraction: 64.60 ± 0.23%
  GSD: 1.13 ± 0.11
  MMAD: 8.27 ± 1.41 μm
  RF (<5 μm): 16.44 ± 2.12%
[7]; LR Plastiape
  Emitted Dose: 8.48 ± 0.25 mg
  Emitted Fraction: 90.20 ± 0.27%
  GSD: 1.25 ± 0.01
  RF (<5 μm): 28.59 ± 1.56%
[7]; LR Plastiape, listed as Unmilled
  MMAD: 5.73 ± 0.52 μm
[7]; LR Plastiape, listed as unmilled tigecycline
  MMAD: 5.73±0.52 μm
[7]; pressure drop of 4 kPa
  emitted dose deposited in the capsule, device, throat and early NGI stages: > 65%
[7]; pressure drop of 4 kPa, before storage
  Fine Particle Dose (FPD): 2.57 ± 0.06 mg
[7]; pressure drop of 4 kPa, before storage, particles below 5 μm with respect to emitted dose
  fine particle fraction (FPF): 31.70±1.83%
[8]
  True Density: 1.282 ± 0.0004 g/mL
